# Where two headings read alike, the source gives them in different places.
# Legend:
# Experiment in all cases: SelectScreen Kinase Profiling, single point inhibition and IC50 for off-target kinases
# Format in all cases: biochemical
# off-target kinases [1] = target: T1, off-target kinases (Homo sapiens, UniProt Q9BZL6); conditions: PRKD2 (PKD2), ATP Km app, ZLYTE
# T1 sequence (Q9BZL6 1-878): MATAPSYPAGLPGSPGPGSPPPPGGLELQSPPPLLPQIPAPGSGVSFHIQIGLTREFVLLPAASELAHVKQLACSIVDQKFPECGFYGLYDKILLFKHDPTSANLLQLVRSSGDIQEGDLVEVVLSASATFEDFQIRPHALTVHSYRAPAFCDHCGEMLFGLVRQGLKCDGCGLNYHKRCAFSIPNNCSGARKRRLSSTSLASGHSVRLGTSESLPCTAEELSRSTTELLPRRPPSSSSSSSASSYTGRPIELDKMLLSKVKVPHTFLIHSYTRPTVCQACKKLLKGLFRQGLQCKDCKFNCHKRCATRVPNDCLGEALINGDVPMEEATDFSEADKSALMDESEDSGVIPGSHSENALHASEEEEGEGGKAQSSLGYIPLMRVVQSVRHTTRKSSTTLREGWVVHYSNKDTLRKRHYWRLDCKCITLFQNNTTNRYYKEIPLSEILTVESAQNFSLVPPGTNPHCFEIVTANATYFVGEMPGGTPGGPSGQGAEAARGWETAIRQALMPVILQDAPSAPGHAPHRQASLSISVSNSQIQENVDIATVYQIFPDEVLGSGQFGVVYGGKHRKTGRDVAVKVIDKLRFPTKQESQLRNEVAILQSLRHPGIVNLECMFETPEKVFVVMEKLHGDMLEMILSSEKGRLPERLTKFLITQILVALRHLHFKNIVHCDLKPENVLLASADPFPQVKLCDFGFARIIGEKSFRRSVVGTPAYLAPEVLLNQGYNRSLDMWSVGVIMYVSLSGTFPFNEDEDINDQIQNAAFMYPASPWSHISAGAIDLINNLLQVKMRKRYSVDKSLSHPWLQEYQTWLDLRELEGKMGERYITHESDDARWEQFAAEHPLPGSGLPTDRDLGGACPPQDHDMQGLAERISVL
# off-target kinases [2] = target: T2, off-target kinases (Homo sapiens, UniProt Q8IVH8); conditions: MAP4K3 (GLK), LanthaScreen Binding
# T2 sequence (Q8IVH8 1-894): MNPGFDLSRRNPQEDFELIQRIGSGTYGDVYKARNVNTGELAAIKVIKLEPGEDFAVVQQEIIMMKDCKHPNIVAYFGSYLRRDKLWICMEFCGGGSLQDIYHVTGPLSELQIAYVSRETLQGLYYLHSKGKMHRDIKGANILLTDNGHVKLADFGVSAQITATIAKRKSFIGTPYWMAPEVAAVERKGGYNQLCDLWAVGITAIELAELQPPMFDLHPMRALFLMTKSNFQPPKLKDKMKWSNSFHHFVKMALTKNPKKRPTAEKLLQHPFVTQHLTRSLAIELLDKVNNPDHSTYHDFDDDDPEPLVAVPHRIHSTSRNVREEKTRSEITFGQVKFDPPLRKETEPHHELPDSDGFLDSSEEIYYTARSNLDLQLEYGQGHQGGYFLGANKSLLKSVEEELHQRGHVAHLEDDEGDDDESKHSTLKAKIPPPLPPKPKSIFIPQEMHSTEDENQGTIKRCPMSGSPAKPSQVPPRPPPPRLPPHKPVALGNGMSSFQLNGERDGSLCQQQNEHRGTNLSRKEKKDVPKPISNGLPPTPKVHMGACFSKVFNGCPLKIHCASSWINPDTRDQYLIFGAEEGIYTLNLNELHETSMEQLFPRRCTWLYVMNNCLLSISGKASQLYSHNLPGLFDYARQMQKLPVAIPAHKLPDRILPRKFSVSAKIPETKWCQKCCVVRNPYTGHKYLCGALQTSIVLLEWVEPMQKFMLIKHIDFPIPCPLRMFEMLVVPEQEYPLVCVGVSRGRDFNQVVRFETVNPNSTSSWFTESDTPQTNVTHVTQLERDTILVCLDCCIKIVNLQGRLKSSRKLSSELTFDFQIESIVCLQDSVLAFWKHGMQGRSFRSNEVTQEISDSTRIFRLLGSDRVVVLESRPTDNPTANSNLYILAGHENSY
# off-target kinases [3] = target: off-target kinases (Homo sapiens, UniProt P07949, G691S); conditions: RET G691S, mutant y, LanthaScreen Binding
# Sequence of off-target kinases (Homo sapiens, UniProt P07949, G691S) (P07949 29-1114 G691S): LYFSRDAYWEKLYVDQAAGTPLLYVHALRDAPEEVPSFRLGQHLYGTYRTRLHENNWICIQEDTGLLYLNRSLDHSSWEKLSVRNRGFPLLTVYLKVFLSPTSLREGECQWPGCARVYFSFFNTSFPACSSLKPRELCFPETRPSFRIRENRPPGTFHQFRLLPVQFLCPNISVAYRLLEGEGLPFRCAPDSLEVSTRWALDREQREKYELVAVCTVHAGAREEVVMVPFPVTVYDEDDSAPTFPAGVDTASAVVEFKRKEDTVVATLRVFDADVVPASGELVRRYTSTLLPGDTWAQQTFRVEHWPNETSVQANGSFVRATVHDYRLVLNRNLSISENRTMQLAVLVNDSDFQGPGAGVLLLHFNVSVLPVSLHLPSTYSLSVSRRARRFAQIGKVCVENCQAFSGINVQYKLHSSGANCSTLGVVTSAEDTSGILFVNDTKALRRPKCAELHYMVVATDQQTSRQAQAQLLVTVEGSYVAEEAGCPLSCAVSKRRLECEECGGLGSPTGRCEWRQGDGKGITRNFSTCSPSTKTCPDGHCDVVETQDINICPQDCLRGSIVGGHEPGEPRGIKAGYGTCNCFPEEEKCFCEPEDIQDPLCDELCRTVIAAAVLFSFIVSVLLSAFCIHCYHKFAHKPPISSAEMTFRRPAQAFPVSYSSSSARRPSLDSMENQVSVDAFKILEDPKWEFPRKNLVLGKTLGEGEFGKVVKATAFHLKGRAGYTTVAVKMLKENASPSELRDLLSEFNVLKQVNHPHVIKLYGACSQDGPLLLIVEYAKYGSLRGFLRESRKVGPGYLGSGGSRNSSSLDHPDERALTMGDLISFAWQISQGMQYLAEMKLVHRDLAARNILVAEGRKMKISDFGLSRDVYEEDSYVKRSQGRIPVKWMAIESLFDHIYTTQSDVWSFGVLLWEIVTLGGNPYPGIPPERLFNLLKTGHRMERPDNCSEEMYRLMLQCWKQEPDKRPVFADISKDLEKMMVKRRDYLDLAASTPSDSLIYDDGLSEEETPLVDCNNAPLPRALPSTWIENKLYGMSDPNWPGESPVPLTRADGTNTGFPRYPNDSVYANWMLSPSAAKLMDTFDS
smiles,measurement,setting,value
"N#Cc1cc(-c2ncnc(Nc3ccc(N4CCN(C5COC5)CC4)cc3)n2)ccc1OC1CCOCC1 [Compound 1, 5-(4-((4-(4-(oxetan-3-yl)piperazin-1-yl)phenyl)amino)-1,3,5-triazin-2-yl)-2-((tetrahydro-2H-pyran-4-yl)oxy)benzonitrile]",inhibition,off-target kinases [1]; read-out: % Inhibition 1,99%
same,inhibition,off-target kinases [1]; read-out: % Inhibition 2,97%
same,inhibition,off-target kinases [1]; read-out: % Inhibition Avg,98%
same,inhibition,off-target kinases [2]; read-out: % Inhibition 1,16%
same,inhibition,off-target kinases [2]; read-out: % Inhibition 2,21%
same,inhibition,off-target kinases [2]; read-out: % Inhibition Avg,18%
same,inhibition,off-target kinases [3]; read-out: % Inhibition 1,19%
same,inhibition,off-target kinases [3]; read-out: % Inhibition 2,18%
same,inhibition,off-target kinases [3]; read-out: % Inhibition Avg,18%
